Patent US10854312B2, “Selective peptide antagonists” (BIONIZ, LLC, priority 2013, dated 2020)
“Also recorded” adds a separate entry of the source. No end group written: not given here.

How the values were obtained:
Format in all cases: cell-based
mouse IL-4 = assay: PT-18 proliferation assay (WST-1), IL-4; conditions: murine PT-18 cells, mouse IL-4, BNZ132-1 50 nM, 500 nM, 5 μM
Experimental: (§1) FIG. 6A-FIG. 6E presents inhibitory spectrum of BNZ132-1 over γc- and non-γc-cytokines. […] Neutralizing antibodies against each cytokine (R & D systems, 5 μg ml^−1) were included as controls. After 20 h, the cells were pulsed with WST-1 (Clontech) and OD450 of each well was measured after 6 h. A 19-mer scrambled peptide was used as a negative control at 5 μM. The experiments were conducted in triplicate (applies to all experiments in FIG. 6A-FIG. 6E). The result represents one of at least three independent experiments (applies to all experiments in FIG. 6A-FIG. 6E). […] In PT-18 proliferation assay, PT-18β or PT-18h21Rα cells were withdrawn of mouse IL-3 for 12 h before the experiment. Cells were then incubated with 1 nM of mouse IL-4, mouse IL-9, or mouse IL-21 in the presence or absence of the indicated doses (μM) of BNZ132-1. Neutralizing antibodies to each cytokine (5 μg ml^−1, except for anti-mouse IL-21 polyclonal antibody which was used at 15 μg ml−1) and a scrambled control peptide (5 μM) were included as negative controls. WST-1 assay was conducted as described above. […] In PT-18 h21Rα survival assay, PT-18h21Rα cells are described in the text. […] Both parental and hIL-21Rα positive PT-18 cells were washed and incubated without IL-3 for 12 h before the assay. […] The Y-axis represents the cpm (count per minute) values measured by a β-counter. […]

mouse IL-9 = assay: PT-18 proliferation assay (WST-1), IL-9; conditions: murine PT-18 cells, 1 nM mouse IL-9, BNZ132-1 50 nM, 500 nM, 5 μM
Experimental: as §1

human IL-7 = assay: Human peripheral T-cell (PBMC) proliferation assay, IL-7; conditions: ex vivo human primary T cells, 10 nM human IL-7
Experimental: as §1

human Flt-3 ligand = human Flt-3 ligand (Homo sapiens, UniProt P49771); assay: PT-18β proliferation assay (3H-thymidine), non-γc cytokine Flt-3 ligand; conditions: 1 nM human Flt-3 ligand, 15 μM BNZ132-1
[1] = system: IL-15 signaling (STAT5, PI3kinase-Akt, MAP-kinase branches); assay: Western blot of phosphorylation downstream of IL-15 in PT-18β cells; conditions: 1 nM human IL-15, 0.5 μM BNZ132-1
Experimental: FIG. 9A-FIG. 9C present comprehensive inhibition by BN132-1 of signaling events caused by target γc-cytokines. […] Cells have been fasted of IL-3 for 12 h and then stimulated with 1 nM human IL-15 (Peprotech) in the presence or absence of 0.5 μM BNZ132-1 for 15 min before extraction of cellular proteins. Phosphorylation of the relevant molecules were detected using antibodies against each phosphor-proteins (Cell Signaling), followed by the ECL technique (Thermo Scientific). Lanes: 1. no stimulation, 2. IL-15 (1 nM), 3. IL-15 (1 nM)+BNZ132-1 (0.5 μM).
Cellular proliferation often represents a combination of several independent signaling pathways, and inhibiting one signaling branch […] the proliferation. […] FIG. 9A-FIG. 9C show comprehensive inhibition of the signal transduction pathways downstream of IL-15/IL-15 receptor system in PT-18 cells by BNZ 132-1. PT-18β cells have been withdrawn of IL-15 for overnight to induce into proliferative quiescence (no-stimulation). To restimulate the cells, 1 nM of IL-15 was added in the presence or absence of BNZ132-1 (0.5 μM). After […], cell lysates were collected and phosphorylation of key mediators of major signaling branches were determined by western blotting.

Sequence of human Flt-3 ligand (P49771 27-235): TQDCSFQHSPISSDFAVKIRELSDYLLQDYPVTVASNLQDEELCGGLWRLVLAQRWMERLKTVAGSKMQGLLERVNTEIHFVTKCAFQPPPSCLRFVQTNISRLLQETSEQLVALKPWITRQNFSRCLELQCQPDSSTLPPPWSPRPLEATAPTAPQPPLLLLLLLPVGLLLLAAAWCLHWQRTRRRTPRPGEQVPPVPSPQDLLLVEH

**Q.** Which results are given for IKEFLQRFIHIVQSIINTS [BNZ132-1]?
**A.** inhibition of IL-4-induced proliferation of PT-18 cells (mouse IL-4): did not inhibit; inhibition of IL-9-induced proliferation of PT-18 cells (mouse IL-9): partially inhibited; also recorded: inhibition of IL-9; inhibition of IL-7-induced proliferation of ex vivo human T cells (human IL-7): not significantly inhibited; also recorded: no inhibition of IL-7; inhibition of Flt3-L-induced proliferation of PT-18β cells (human Flt-3 ligand): did not inhibit; also recorded: no inhibition; also recorded: no inhibition of non-γc cytokines; inhibition of IL-15 signaling (phosphorylation of key signaling molecules) [1]: comprehensively inhibited; also recorded: near-complete inhibition
